How the values were obtained:
KRAS G12V = KRAS G12V (Homo sapiens, UniProt P01116, G12V); experiment: GDP-GTP exchange assay, KRAS G12V (bodipy-GDP/GppNHp, SOS1); type: biochemical; conditions: bodipy-loaded KRAS G12V 2.5 nM, 3 hours pre-incubation with inhibitor, SOS1 150 nM, GppNHp 500 uM; read-out: G12V_exchange (KRAS_G12V exchange assay IC50)
Protocol: (§1) The inhibitor potency of the exemplified compounds was determined in a fluorescence based guanine nucleotide exchange assay, which measures the exchange of bodipy-GDP (fluorescently labeled GDP) for GppNHp (Non-hydrolyzable GTP analog) to generate the active state of KRAS in the presence of SOS1 (guanine nucleotide exchange factor). Inhibitors were serially diluted in DMSO and a volume of 0.1 μL was transferred to the wells of a black low volume 384-well plate. Five μL/well volume of bodipy-loaded KRAS G12D or G12V diluted to a final concentration of 2.5 nM in assay buffer (25 mM Hepes pH 7.5, 50 mM NaCl, 10 mM MgCl2 and 0.01% Brij-35) was added to the plate and pre-incubated with inhibitor for 4 hours (G12D) or 3 hours (G12V) at ambient temperature. A cyclic peptide described to selectively bind G12D mutant (Sakamoto et al., BBRC 484.3 (2017), 605-611) or internal compounds with confirmed binding were used as positive controls in the assay plates. The exchange was initiated by the addition of a 5 μL/well volume containing 1 mM GppNHp and 300 nM SOS1 in assay buffer. The 10 μL/well reaction concentration of the bodipy-loaded KRAS G12D or G12V, GppNHp, and SOS1 were 2.5 nM, 500 uM, and 150 nM, respectively.
(§2) Either GraphPad prism or XLfit was used to analyze the data. The IC50 values were derived by fitting the data to a four parameter logistic equation producing a sigmoidal dose-response curve with a variable Hill coefficient. Prism equation: Y=Bottom+(Top−Bottom)/(1+10^((LogIC50-X)*Hill slope)); XLfit equation: Y=(A+((B−A)/(1+((X/C)^D)))) where X is the logarithm of inhibitor concentration and Y is the response.

KRAS G12D = KRAS G12D (Homo sapiens, UniProt P01116, G12D); experiment: GDP-GTP exchange assay, KRAS G12D (bodipy-GDP/GppNHp, SOS1); type: biochemical; conditions: bodipy-loaded KRAS G12D 2.5 nM, 4 hours pre-incubation with inhibitor, SOS1 150 nM, GppNHp 500 uM; read-out: G12D_exchange (KRAS_G12D exchange assay IC50)
Sequence of KRAS G12D (P01116 1-188 isoform P01116-2 G12D): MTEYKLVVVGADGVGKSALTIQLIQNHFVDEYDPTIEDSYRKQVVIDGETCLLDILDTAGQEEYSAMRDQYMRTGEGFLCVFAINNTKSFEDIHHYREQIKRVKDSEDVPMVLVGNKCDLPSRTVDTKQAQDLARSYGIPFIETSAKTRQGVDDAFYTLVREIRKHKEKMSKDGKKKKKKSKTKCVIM
Protocol: as §1, §2

Sequence of KRAS G12V (P01116 1-188 isoform P01116-2 G12V): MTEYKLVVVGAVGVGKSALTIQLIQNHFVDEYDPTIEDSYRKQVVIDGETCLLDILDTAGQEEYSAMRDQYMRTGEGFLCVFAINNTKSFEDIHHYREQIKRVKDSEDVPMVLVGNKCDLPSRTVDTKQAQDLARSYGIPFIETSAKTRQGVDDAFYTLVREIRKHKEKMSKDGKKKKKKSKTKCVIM

IC50 (KRAS G12V) | IC50 (KRAS G12D) | SMILES
100 to 1000 nM | 100 to 1000 nM | C[C@@H](CN(C)C)Oc1nc2c(F)c(-c3cc(O)cc4ccccc34)c(CCC#N)cc2c2c1NC(=O)CN2C1C2CNC1C2 (single isomer, unassigned) [Example 11d]
100 to 1000 nM | 100 to 1000 nM | N#CCCc1cc2c3c(c(OC[C@@]45CCCN4C[C@H](F)C5)nc2c(F)c1-c1cc(O)cc2ccccc12)NC(=O)CN3C1C2CNC1C2 (single isomer, unassigned) [Example 10c]
100 to 1000 nM | 100 to 1000 nM | C[C@H](Oc1nc2c(F)c(-c3cccc4ccc(F)cc34)c(CCC#N)cc2c2c1NC(=O)CN2C1C2CNC1C2)[C@@H]1CCCN1C (single isomer, unassigned) [Example 3b]
100 to 1000 nM | 100 to 1000 nM | CN(C)C1CN(c2nc3c(F)c(-c4cc(O)cc5ccccc45)c(CCC#N)cc3c3c2NC(=O)CN3C2C3CNC2C3)C1 (single isomer, unassigned) [Example 13b, 3-(1-((endo)-2-Azabicyclo[2.1.1]hexan-5-yl)-5-(3-(dimethylamino)azetidin-1-yl)-7-fluoro-8-(3-hydroxynaphthalen-1-yl)-3-oxo-1,2,3,4-tetrahydropyrazino[2,3-c]quinolin-9-yl)propanenitrile]
5000 to 10000 nM | 5000 to 10000 nM | C[C@@H](CN(C)C)Oc1nc2c(F)c(-c3cc(O)cc4ccccc34)c(CCC#N)cc2c2c1NC(=O)CN2C1C2CNC1C2 (single isomer, unassigned) [Example 11b]
100 to 1000 nM | 100 to 1000 nM | C[C@H](Oc1nc2c(F)c(-c3cccc(Cl)c3Cl)c(CCC#N)cc2c2c1NC(=O)CN2C1C2CNC1C2)[C@@H]1CCCN1C (single isomer, unassigned) [Example 2c]
100 to 1000 nM | 100 to 1000 nM | C[C@H](Oc1nc2c(F)c(-c3cccc(Cl)c3Cl)c(CCC#N)cc2c2c1NC(=O)CN2C1C2CNC1C2)[C@@H]1CCCN1C (single isomer, unassigned) [Example 2a]
5000 to 10000 nM | 5000 to 10000 nM | N#CCCc1cc2c3c(c(Cc4ccccc4)nc2c(F)c1-c1cc(O)cc2ccccc12)NC(=O)CN3C1C2CNC1C2 (single isomer, unassigned) [Example 8b, 3-(5-Benzyl-1-((endo)-2-azabicyclo[2.1.1]hexan-5-yl)-7-fluoro-8-(3-hydroxynaphthalen-1-yl)-3-oxo-1,2,3,4-tetrahydropyrazino[2,3-c]quinolin-9-yl)propanenitrile]
100 to 1000 nM | 100 to 1000 nM | C[C@H](Oc1nc2c(F)c(-c3cc(O)cc4ccc(F)cc34)c(CCC#N)cc2c2c1NC(=O)CN2C1C2CNC1C2)[C@@H]1CCCN1C (single isomer, unassigned) [Example 4b]
5000 to 10000 nM | 5000 to 10000 nM | C[C@@H](CN(C)C)Oc1nc2c(F)c(-c3cc(O)cc4ccccc34)c(CCC#N)cc2c2c1CCCN2C1C2CNC1C2 (single isomer, unassigned) [Example 16a]
1000 to 5000 nM | 1000 to 5000 nM | CNC(=O)c1ccc(-c2nc3c(F)c(-c4cc(O)cc5ccccc45)c(CCC#N)cc3c3c2NC(=O)CN3C2C3CNC2C3)cn1 (single isomer, unassigned) [Example 5b, 5-(1-((endo)-2-Azabicyclo[2.1.1]hexan-5-yl)-9-(2-cyanoethyl)-7-fluoro-8-(3-hydroxynaphthalen-1-yl)-3-oxo-1,2,3,4-tetrahydropyrazino[2,3-c]quinolin-5-yl)-N-methylpicolinamide]
5000 to 10000 nM | 1000 to 5000 nM | N#CCCc1cc2c3c(c(OC[C@@]45CCCN4C[C@H](F)C5)nc2c(F)c1-c1cc(O)cc2ccccc12)NC(=O)CN3C1C2CNC1C2 (single isomer, unassigned) [Example 10d]
1000 to 5000 nM | 1000 to 5000 nM | CNC(=O)c1cccc(-c2nc3c(F)c(-c4cc(O)cc5ccccc45)c(CCC#N)cc3c3c2NC(=O)CN3C2C3CNC2C3)c1 (single isomer, unassigned) [Example 9b, 3-(1-((endo)-2-Azabicyclo[2.1.1]hexan-5-yl)-9-(2-cyanoethyl)-7-fluoro-8-(3-hydroxynaphthalen-1-yl)-3-oxo-1,2,3,4-tetrahydropyrazino[2,3-c]quinolin-5-yl)-N-methylbenzamide]
1000 to 5000 nM | 1000 to 5000 nM | C[C@H](Oc1nc2c(F)c(-c3cc(O)cc4ccccc34)c(CCC#N)cc2c2c1CCCN2C1C2CNC1C2)[C@@H]1CCCN1C (single isomer, unassigned) [Example 15a]
1000 to 5000 nM | 1000 to 5000 nM | CC1Cc2c(OC[C@@H]3CCCN3C)nc3c(F)c(-c4cc(O)cc5ccccc45)c(CCC#N)cc3c2N(C2C3CNC2C3)C1 (single isomer, unassigned) [Example 14d]
1000 to 5000 nM | 100 to 1000 nM | N#CCCc1cc2c3c(c(Cc4ccccc4)nc2c(F)c1-c1cc(O)cc2ccccc12)NC(=O)CN3C1C2CNC1C2 (single isomer, unassigned) [Example 8a, 3-(5-Benzyl-1-((endo)-2-azabicyclo[2.1.1]hexan-5-yl)-7-fluoro-8-(3-hydroxynaphthalen-1-yl)-3-oxo-1,2,3,4-tetrahydropyrazino[2,3-c]quinolin-9-yl)propanenitrile]
1000 to 5000 nM | 1000 to 5000 nM | N#CCCc1cc2c3c(c(-c4ccc5cccnc5c4)nc2c(F)c1-c1cc(O)cc2ccccc12)NC(=O)CN3C1C2CNC1C2 (single isomer, unassigned) [Example 6b, 3-(1-((endo)-2-Azabicyclo[2.1.1]hexan-5-yl)-7-fluoro-8-(3-hydroxynaphthalen-1-yl)-3-oxo-5-(quinolin-7-yl)-1,2,3,4-tetrahydropyrazino[2,3-c]quinolin-9-yl)propanenitrile]
≤ 100 nM | ≤ 100 nM | C[C@H](Oc1nc2c(F)c(-c3cccc(Cl)c3Cl)c(CCC#N)cc2c2c1c(=O)c(N1CCCC1=O)cn2[C@H]1[C@H]2CN[C@@H]1C2)[C@@H]1CCCN1C (single isomer, unassigned) [Example 25]
100 to 1000 nM | ≤ 100 nM | N#CCCc1cc2c3c(cnc2c(F)c1-c1cc(O)cc2ccccc12)N(CCC1CCNCC1)C(=O)CN3C1C2CNC1C2 (single isomer, unassigned) [Example 18a, 3-(1-((endo)-2-Azabicyclo[2.1.1]hexan-5-yl)-7-fluoro-8-(3-hydroxynaphthalen-1-yl)-3-oxo-4-(2-(piperidin-4-yl)ethyl)-1,2,3,4-tetrahydropyrazino[2,3-c]quinolin-9-yl)propanenitrile]
5000 to 10000 nM | 1000 to 5000 nM | CN1CCC[C@H]1COc1nc2c(F)c(-c3cc(O)cc4ccccc34)c(CCC#N)cc2c2c1CCCN2C1C2CNC1C2 (single isomer, unassigned) [Example 12a]
100 to 1000 nM | 100 to 1000 nM | N#CCCc1cc2c3c(cnc2c(F)c1-c1cc(O)cc2ccccc12)N(c1ccccc1)C(=O)CN3[C@@H]1[C@@H]2CN[C@H]1C2 (relative stereo) [Example 17, 3-(1-((endo)-2-Azabicyclo[2.1.1]hexan-5-yl)-7-fluoro-8-(3-hydroxynaphthalen-1-yl)-3-oxo-4-phenyl-1,2,3,4-tetrahydropyrazino[2,3-c]quinolin-9-yl)propanenitrile]
5000 to 10000 nM | 5000 to 10000 nM | C[C@@H](CN(C)C)Oc1nc2c(F)c(-c3cc(O)cc4ccccc34)c(CCC#N)cc2c2c1NC(=O)CN2C1C2CNC1C2 (single isomer, unassigned) [Example 11a]
5000 to 10000 nM | 1000 to 5000 nM | CC1Cc2c(OC[C@@H]3CCCN3C)nc3c(F)c(-c4cc(O)cc5ccccc45)c(CCC#N)cc3c2N(C2C3CNC2C3)C1 (single isomer, unassigned) [Example 14c]
1000 to 5000 nM | 1000 to 5000 nM | C[C@H](Oc1nc2c(F)c(-c3cc(O)cc4ccc(F)cc34)c(CCC#N)cc2c2c1NC(=O)CN2C1C2CNC1C2)[C@@H]1CCCN1C (single isomer, unassigned) [Example 4a]
1000 to 5000 nM | 100 to 1000 nM | Cn1cnc(-c2nc3c(F)c(-c4cc(O)cc5ccccc45)c(CCC#N)cc3c3c2NC(=O)CN3C2C3CNC2C3)c1 (single isomer, unassigned) [Example 7b, 3-(1-((endo)-2-Azabicyclo[2.1.1]hexan-5-yl)-7-fluoro-8-(3-hydroxynaphthalen-1-yl)-5-(1-methyl-1H-imidazol-4-yl)-3-oxo-1,2,3,4-tetrahydropyrazino[2,3-c]quinolin-9-yl)propanenitrile]
≤ 100 nM | ≤ 100 nM | Cc1cc2c(nc(O[C@@H](C)[C@@H]3CCCN3C)c3c(=O)c(Nc4cnn(C)c4)cn([C@H]4[C@H]5CN[C@@H]4C5)c32)c(F)c1-c1cccc2c1C(C#N)CCC2 (single isomer, unassigned) [Example 26a]
